Measurements published in US6608032B1, “Medicinal compositions” (Takara Shuzo Co., Ltd., priority 1999, dated 2003).

What was measured:
DSEK cells = assay: Growth of DSEK cells (in vitro rheumatoid model), WST-1; assay type: cell-based, human
Description: DSEK cell is a fibroblast cell line established from a synovial membrane of a human patient with chronic rheumatism and is held at Department of Second Internal Medicine, Integrated Medical Center, Saitama Collage of Medicine as an in vitro rheumatoid model. DSEK cells were cultured in Iscov-MEM medium (IMDM: Gibco-BRL) containing 10% FBS (Bio Whittaker) at 37° C. in the presence of 5% CO2 to saturation of culture vessel. The cells were suspended in the same medium at a concentration of 3×10^4 cells/ml using a trypsin-EDTA solution (Bio Whittaker). 200 μl of the suspension was dispensed into each well of a 96-well microtiter plate (Falcon). […]
10 μl of Premix WST-1 (Takara Shuzo, MK400) was added to one of the wells at intervals of 24 hours up to 72 hours after the medium change. The mixture was reacted at 37° C. for 3.5 hours. The degree of cell growth was expressed by a value obtained by subtracting the absorbance at 650 nm (A650) from the absorbance at 450 nm (A450).

celiac macrophages = assay: TPA-induced IL-6 production in celiac macrophages; assay type: cell-based, mouse; conditions: 5 μl of 20, 10 or 5 mM solution per 500 μl; 14 hours; concentration dependent; FIG. 16
Description: 4 ml of RPMI 1640 medium (Bio Whittaker, 12-702F) containing 10% fetal calf serum was intraperitoneally injected into ddy mouse (Japan SLC, female, 7 weeks old) The medium was removed after extensive massage to obtain celiac cells. The celiac cells were suspended in RPMI 1640 medium containing 10% fetal calf serum at a concentration of 10^6 cells/ml. 500 μl of the suspension was added to each well of a 48-well microtiter plate and the plate was incubated at 37° C. for 2 hours in the presence of 5% CO2. Adhesive cells obtained by removing the culture supernatant were used as celiac macrophaaes. 500 μl of fresh Dulbecco's modified Eagle's medium (Bio Whittaker, 12-917F) without Phenol Red containing 10% fetal calf serum and 2 mM L-glutamine was added to each well. 5 μl of 20, 10 or 5 mM aqueous solution of agarobiose obtained in Referential Example 1 and 5 μl of 10 μg/ml aqueous solution of 12-O-tetradecanoylphorbol 13-acetate (TPA, Gibco, 13139-019) were added to the well. The plate was incubated for additional 14 hours, and the culture supernatant was then collected. The content of interleukin 6 (IL-6) in the culture supernatant was measured using enzyme immuno sandwich assay (ELISA; Matched antibody Pair Sample Pak-mouse IL6, Endogen). As a control, a group to which the agarobiose aqueous solution or the TPA aqueous solution was not added was provided. […]

RAW264.7 cells = assay: Prostaglandin E2 generation by crude enzyme fraction of RAW264.7 cells pre-treated with sample and LPS; assay type: cell-based; conditions: cells treated with 200 μl of 10 mM sample per 20 ml, 5 hours before LPS
Description: (1) RAW264.7 cells (ATCC TIB 71) were suspended in Dulbecco's modified Eagle's medium (Bio Whittaker, 12-604F) containing 10% fetal calf serum (Gibco) at a concentration of 1×10^6 cells/ml. 20 ml of the suspension was added to a 10-cm Petri dish and the dish was incubated at 37° C. overnight in the presence of 5% CO2. 200 μl of a solution containing agarohexaose or DGE (obtained in Example 15-(2) below) at a concentration of 10 mM in water was added to the dish. The dish was incubated for 5 hours. 200 μl of a solution containing lipopolysaccharide (LPS, Sigma, L-2012) at a concentration of 100 μg/ml in water was added thereto. The dish was incubated for additional 12 hours. As a control, 200 μL of water was added in place of the sample. The cells were recovered by detaching the cells from the plate using a scraper and suspended in 0.1 M tris buffer (pH 8.0) containing 1 μg/ml pepstatin A (Sigma, P5318), 1 μg/ml leupeptin (Sigma, L2884) and 1 mM phenylmethylsulfonyl fluoride (Nacalai Tesque, 273-27). The cell membrane was destroyed by sonication. A supernatant collected by centrifugation was used as a crude enzyme fraction. The content of protein in the crude enzyme fraction was determined using Micro BCA Protein Assay Reagent (a product of Pierce sold by Takara Shuzo, P7411). 2.5 μL of 200 mM aqueous solution of glutathione (Nacalai Tesque, 170-50), 2.5 μL of a suspension containing L-adrenaline (Nacalai Tesque, 010-04) at a concentration of 200 mM in water, and 1 μL of 3 mM solution of arachidonic acid (Cayman, 90010.1) or 1 μL of 100 μg/mL solution of prostaglandin H2 (Cayman, 17020) were added to 100 μL of the sample from the crude enzyme fraction prepared as described above. The mixture was reacted at 37° C. for 30 minutes. The reaction was stopped by heating at 100° C. for 2 minutes. The content of prostaglandin E2 in the reaction mixture was measured using Prostaglandin E2 ELISA Kit (Neogen, 404110).

OC[C@H]1O[C@@H](O[C@H]2[C@H]3OC[C@@H]2OC(O)[C@H]3O)[C@H](O)[C@@H](O)[C@H]1O (mixture of isomers) [Agarobiose, agarobiose]
Degree of cell growth (A450-650) (DSEK cells; 50 μM, 24 hr): 1.00 A450-650
Degree of cell growth (A450-650) (DSEK cells; 50 μM, 48 hr): 1.49 A450-650
Degree of cell growth (A450-650) (DSEK cells; 50 μM, 72 hr): 1.27 A450-650
Degree of cell growth (A450-650) (DSEK cells; 100 μM, 24 hr): 0.88 A450-650
Degree of cell growth (A450-650) (DSEK cells; 100 μM, 48 hr): 1.87 A450-650
Degree of cell growth (A450-650) (DSEK cells; 100 μM, 72 hr): 1.26 A450-650
Degree of cell growth (A450-650) (DSEK cells; 200 μM, 24 hr): 0.89 A450-650
Degree of cell growth (A450-650) (DSEK cells; 200 μM, 48 hr): 1.50 A450-650
Degree of cell growth (A450-650) (DSEK cells; 200 μM, 72 hr): 0.93 A450-650
Degree of cell growth (A450-650) (DSEK cells; 400 μM, 24 hr): 0.87 A450-650
Degree of cell growth (A450-650) (DSEK cells; 400 μM, 48 hr): 0.52 A450-650
Degree of cell growth (A450-650) (DSEK cells; 400 μM, 72 hr): 0.47 A450-650
Degree of cell growth (A450-650) (DSEK cells; 800 μM, 24 hr): 0.54 A450-650
Degree of cell growth (A450-650) (DSEK cells; 800 μM, 48 hr): 0.45 A450-650
Degree of cell growth (A450-650) (DSEK cells; 800 μM, 72 hr): 0.56 A450-650
IC50 (DSEK cells; 72 hours, read-out: concentration that resulted in the inhibition of the growth of half cells (IC50)): 169 µM
TPA-induced IL-6 production (celiac macrophages): suppression of TPA-induced IL-6 production

OCC1OC(OC2C3COC2C(O)C(OC2C(O)C(CO)OC(OC4C5COC4C(O)C(OC4C(O)C(CO)OC(OC6C7COC6C(O)C(O)O7)C4O)O5)C2O)O3)C(O)C(O)C1O (stereo not shown) [Agarohexaose, agarohexaose]
production of prostaglandin E2, arachidonic acid added (RAW264.7 cells; FIG. 13): suppressed as compared with the control
production of prostaglandin E2, prostaglandin H2 added (RAW264.7 cells; FIG. 14): suppressed as compared with the control
